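Five compound concentrations were applied to cells in 96-well plates for 48 hours; endpoints were derived by simple linear interpolation of the resulting dose-response curve. At the GI50, growth is halved.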 The source made the active and inactive calls. Rule as the data show it: active = GI50 up to about 1.1 µM and inactive = higher.
Key:
Assay in all cases: NCI tumour cell line growth inhibition, 48 h
HOP-62 = test system: HOP-62
CAKI-1 = test system: CAKI-1
OVCAR-8 = test system: OVCAR-8
RPMI-8226 = test system: RPMI-8226
NCI-H460 = test system: NCI-H460
ACHN = test system: ACHN
NCI-H522 = test system: NCI-H522
A549 = test system: A549
IGROV-1 = test system: IGROV-1
SF-295 = test system: SF-295
KM12 = test system: KM12
OVCAR-3 = test system: OVCAR-3
COLO 205 = test system: COLO 205
786-0 = test system: 786-0
EKVX = test system: EKVX
SNB-75 = test system: SNB-75
HOP-92 = test system: HOP-92
MCF7 = test system: MCF7
NCI/ADR-RES = test system: NCI/ADR-RES
SK-OV-3 = test system: SK-OV-3

Compound: Oc1c(C(Nc2cccc3cccnc23)c2ccccc2)ccc2cccnc12 (stereo unspecified)
- GI50 (HOP-62): 9.64 µM (inactive)
- GI50 (CAKI-1): 5.6 µM (inactive)
- GI50 (OVCAR-8): 3.72 µM (inactive)
- GI50 (RPMI-8226): 3.88 µM (inactive)
- GI50 (NCI-H460): 3.33 µM (inactive)
- GI50 (ACHN): 3.91 µM (inactive)
- GI50 (NCI-H522): 16.8 µM (inactive)
- GI50 (A549): 6.04 µM (inactive)
- GI50 (IGROV-1): 8.04 µM (inactive)
- GI50 (SF-295): 3.87 µM (inactive)
- GI50 (KM12): 7.41 µM (inactive)
- GI50 (OVCAR-3): 5.77 µM (inactive)
- GI50 (COLO 205): 6.25 µM (inactive)
- GI50 (786-0): 4.07 µM (inactive)
- GI50 (EKVX): 4.84 µM (inactive)

Compound: CC(C)OP(=O)(OC(C)C)/C(=N/Nc1ccc([N+](=O)[O-])cc1)Nc1ccc(N/C(=N\Nc2ccc([N+](=O)[O-])cc2)P(=O)(OC(C)C)OC(C)C)cc1
- GI50 (HOP-62): > 100 µM (inactive)
- GI50 (CAKI-1): 32.8 µM (inactive)
- GI50 (OVCAR-8): 13.6 µM (inactive)
- GI50 (RPMI-8226): 5.24 µM (inactive)
- GI50 (SNB-75): 14.2 µM (inactive)
- GI50 (NCI-H460): 2.31 µM (inactive)
- GI50 (HOP-92): > 100 µM (inactive)
- GI50 (ACHN): 23.4 µM (inactive)
- GI50 (NCI-H522): 6.22 µM (inactive)
- GI50 (A549): 4.91 µM (inactive)
- GI50 (IGROV-1): 4.43 µM (inactive)
- GI50 (KM12): 7.93 µM (inactive)
- GI50 (OVCAR-3): 70.1 µM (inactive)
- GI50 (COLO 205): 5.2 µM (inactive)
- GI50 (EKVX): 26.9 µM (inactive)

Compound: Cc1ccc(-c2n[nH]c(=O)n2/N=C\c2ccccc2)cc1
- GI50 (MCF7): 56.2 µM (inactive)
- GI50 (HOP-62): 22.6 µM (inactive)
- GI50 (CAKI-1): 57.9 µM (inactive)
- GI50 (OVCAR-8): 53.1 µM (inactive)
- GI50 (RPMI-8226): > 86.3 µM (inactive)
- GI50 (SNB-75): 28.6 µM (inactive)
- GI50 (NCI-H460): 33.6 µM (inactive)
- GI50 (HOP-92): 21 µM (inactive)
- GI50 (ACHN): 50.6 µM (inactive)
- GI50 (NCI-H522): 33.8 µM (inactive)
- GI50 (A549): > 88.5 µM (inactive)
- GI50 (IGROV-1): 47.5 µM (inactive)
- GI50 (SF-295): 28.2 µM (inactive)
- GI50 (KM12): 54 µM (inactive)
- GI50 (OVCAR-3): > 84.1 µM (inactive)
- GI50 (NCI/ADR-RES): 25.2 µM (inactive)
- GI50 (COLO 205): 74.1 µM (inactive)
- GI50 (786-0): 60.3 µM (inactive)
- GI50 (EKVX): 24.9 µM (inactive)

Compound: CC1=C[C@@H]2[C@@H](CC(CO)=C[C@H]3[C@@H]4C(C)(C)[C@]4(OCC(C)C)[C@H](OCC(C)C)[C@@H](C)[C@]23O)C1=O
- GI50 (MCF7): 2.56 µM (inactive)
- GI50 (HOP-62): 0.206 µM (active)
- GI50 (CAKI-1): 1.38 µM (inactive)
- GI50 (OVCAR-8): 1.73 µM (inactive)
- GI50 (SNB-75): 2.97 µM (inactive)
- GI50 (NCI-H460): 0.465 µM (active)
- GI50 (HOP-92): 1.44 µM (inactive)
- GI50 (ACHN): 1.23 µM (inactive)
- GI50 (NCI-H522): 2.2 µM (inactive)
- GI50 (A549): 0.578 µM (active)
- GI50 (IGROV-1): 2.01 µM (inactive)
- GI50 (SF-295): 0.92 µM (active)
- GI50 (KM12): 2.16 µM (inactive)
- GI50 (OVCAR-3): 2.17 µM (inactive)
- GI50 (NCI/ADR-RES): 2.55 µM (inactive)
- GI50 (SK-OV-3): > 8.32 µM (inactive)
- GI50 (COLO 205): 0.243 µM (active)
- GI50 (786-0): 1.47 µM (inactive)
- GI50 (EKVX): 1.03 µM (active)

Compound: O=S(O)CCCCCSSSCCCCCS(=O)O
- GI50 (HOP-62): > 100 µM (inactive)
- GI50 (SNB-75): 24.6 µM (inactive)
- GI50 (NCI-H460): > 100 µM (inactive)
- GI50 (ACHN): > 100 µM (inactive)
- GI50 (NCI-H522): 24 µM (inactive)
- GI50 (KM12): > 100 µM (inactive)
- GI50 (OVCAR-3): 20.2 µM (inactive)
- GI50 (SK-OV-3): > 100 µM (inactive)
- GI50 (EKVX): > 100 µM (inactive)

Compound: O=C1CCC2=C(CCC2)N1CCc1ccc2c(c1)OCO2
- GI50 (MCF7): 60 µM (inactive)
- GI50 (HOP-62): 94.6 µM (inactive)
- GI50 (CAKI-1): 81.8 µM (inactive)
- GI50 (OVCAR-8): > 10 µM (inactive)
- GI50 (RPMI-8226): < 0.01 µM (active)
- GI50 (SNB-75): 29.2 µM (inactive)
- GI50 (NCI-H460): 48.2 µM (inactive)
- GI50 (ACHN): 77.3 µM (inactive)
- GI50 (NCI-H522): 61.1 µM (inactive)
- GI50 (A549): 62.1 µM (inactive)
- GI50 (IGROV-1): 58.7 µM (inactive)
- GI50 (SF-295): 55.3 µM (inactive)
- GI50 (KM12): 62.4 µM (inactive)
- GI50 (NCI/ADR-RES): 43 µM (inactive)
- GI50 (SK-OV-3): > 100 µM (inactive)
- GI50 (COLO 205): 60.3 µM (inactive)
- GI50 (786-0): > 100 µM (inactive)
- GI50 (EKVX): 47 µM (inactive)

Compound: Cc1ccn2c(=O)cc(-c3ccccc3)nc2c1
- GI50 (MCF7): > 100 µM (inactive)
- GI50 (HOP-62): > 100 µM (inactive)
- GI50 (OVCAR-8): > 100 µM (inactive)
- GI50 (RPMI-8226): > 100 µM (inactive)
- GI50 (SNB-75): 18.3 µM (inactive)
- GI50 (NCI-H460): > 100 µM (inactive)
- GI50 (HOP-92): 74 µM (inactive)
- GI50 (ACHN): 71.1 µM (inactive)
- GI50 (NCI-H522): 55.2 µM (inactive)
- GI50 (A549): > 100 µM (inactive)
- GI50 (IGROV-1): > 100 µM (inactive)
- GI50 (SF-295): > 100 µM (inactive)
- GI50 (KM12): 68.9 µM (inactive)
- GI50 (OVCAR-3): > 100 µM (inactive)
- GI50 (NCI/ADR-RES): 72.3 µM (inactive)
- GI50 (SK-OV-3): > 100 µM (inactive)
- GI50 (COLO 205): > 100 µM (inactive)
- GI50 (786-0): > 100 µM (inactive)
- GI50 (EKVX): 44.7 µM (inactive)

Compound: COC(=O)C1=C(C(=O)OC)C23CC1C1C(C(=O)OC)=C(C(=O)OC)C12C1C=CC3C2C(=O)OC(=O)C21 (stereo unspecified)
- GI50 (HOP-62): > 100 µM (inactive)
- GI50 (OVCAR-8): 48.3 µM (inactive)
- GI50 (RPMI-8226): 32.3 µM (inactive)
- GI50 (SNB-75): 7.1 µM (inactive)
- GI50 (NCI-H460): 34.7 µM (inactive)
- GI50 (HOP-92): 25.3 µM (inactive)
- GI50 (ACHN): 53.5 µM (inactive)
- GI50 (NCI-H522): 22.4 µM (inactive)
- GI50 (A549): 49 µM (inactive)
- GI50 (IGROV-1): 59 µM (inactive)
- GI50 (SF-295): 53 µM (inactive)
- GI50 (KM12): 31 µM (inactive)
- GI50 (OVCAR-3): 3.72 µM (inactive)
- GI50 (COLO 205): 28.3 µM (inactive)
- GI50 (786-0): 94.2 µM (inactive)
- GI50 (EKVX): > 100 µM (inactive)

Compound: COC(=O)C(NC(=O)c1ccccc1)C(c1c(O)cc(O)cc1O)P(=O)(OC)OC (stereo unspecified)
- GI50 (HOP-62): > 100 µM (inactive)
- GI50 (CAKI-1): > 100 µM (inactive)
- GI50 (OVCAR-8): > 100 µM (inactive)
- GI50 (RPMI-8226): 95.9 µM (inactive)
- GI50 (SNB-75): > 100 µM (inactive)
- GI50 (NCI-H460): 95.3 µM (inactive)
- GI50 (HOP-92): > 100 µM (inactive)
- GI50 (ACHN): > 100 µM (inactive)
- GI50 (NCI-H522): > 100 µM (inactive)
- GI50 (A549): > 100 µM (inactive)
- GI50 (IGROV-1): > 100 µM (inactive)
- GI50 (SF-295): > 100 µM (inactive)
- GI50 (KM12): > 100 µM (inactive)
- GI50 (SK-OV-3): > 100 µM (inactive)
- GI50 (COLO 205): > 100 µM (inactive)
- GI50 (EKVX): > 100 µM (inactive)

Compound: NC(=O)SCC(=O)Nc1ccc2ncccc2c1
- GI50 (MCF7): 46.8 µM (inactive)
- GI50 (HOP-62): > 100 µM (inactive)
- GI50 (CAKI-1): > 100 µM (inactive)
- GI50 (OVCAR-8): > 100 µM (inactive)
- GI50 (RPMI-8226): 23.6 µM (inactive)
- GI50 (NCI-H460): 85.3 µM (inactive)
- GI50 (HOP-92): 35.2 µM (inactive)
- GI50 (ACHN): > 100 µM (inactive)
- GI50 (NCI-H522): 27.7 µM (inactive)
- GI50 (A549): > 100 µM (inactive)
- GI50 (IGROV-1): > 100 µM (inactive)
- GI50 (SF-295): 53.2 µM (inactive)
- GI50 (KM12): 45.4 µM (inactive)
- GI50 (OVCAR-3): 35.5 µM (inactive)
- GI50 (NCI/ADR-RES): > 100 µM (inactive)
- GI50 (SK-OV-3): > 100 µM (inactive)
- GI50 (COLO 205): > 100 µM (inactive)
- GI50 (786-0): 26.8 µM (inactive)
- GI50 (EKVX): > 100 µM (inactive)

Compound: N#Cc1c(N)nc(Nc2cccc3ccccc23)c(C#N)c1C#N
- GI50 (MCF7): 2.79 µM (inactive)
- GI50 (HOP-62): 4.89 µM (inactive)
- GI50 (CAKI-1): 6.25 µM (inactive)
- GI50 (OVCAR-8): 5.25 µM (inactive)
- GI50 (RPMI-8226): 2.61 µM (inactive)
- GI50 (SNB-75): 3.52 µM (inactive)
- GI50 (NCI-H460): 2.97 µM (inactive)
- GI50 (ACHN): 4.78 µM (inactive)
- GI50 (NCI-H522): 2.9 µM (inactive)
- GI50 (A549): 5.71 µM (inactive)
- GI50 (IGROV-1): > 10 µM (inactive)
- GI50 (SF-295): 3.4 µM (inactive)
- GI50 (KM12): 7.53 µM (inactive)
- GI50 (OVCAR-3): 2.3 µM (inactive)
- GI50 (NCI/ADR-RES): 2.71 µM (inactive)
- GI50 (SK-OV-3): 3.94 µM (inactive)
- GI50 (COLO 205): > 10 µM (inactive)
- GI50 (EKVX): > 10 µM (inactive)

Compound: Nc1ncnc2c1cnn2Cc1ccc(Cl)cc1
- GI50 (MCF7): > 100 µM (inactive)
- GI50 (OVCAR-8): > 100 µM (inactive)
- GI50 (SNB-75): 48.4 µM (inactive)
- GI50 (NCI-H460): > 100 µM (inactive)
- GI50 (HOP-92): > 100 µM (inactive)
- GI50 (ACHN): > 100 µM (inactive)
- GI50 (NCI-H522): 92 µM (inactive)
- GI50 (A549): > 100 µM (inactive)
- GI50 (SF-295): > 100 µM (inactive)
- GI50 (KM12): > 100 µM (inactive)
- GI50 (OVCAR-3): > 100 µM (inactive)
- GI50 (NCI/ADR-RES): 83 µM (inactive)
- GI50 (COLO 205): > 100 µM (inactive)

Reference: ChEMBL document CHEMBL1201862, “PubChem BioAssay data set” (2004)
